Biological target: T1, LXRβ (Homo sapiens, UniProt P55055)
T1 construct: Co-transfection expression plasmids, comprising full-length LXRα (pCMX-h LXRα[…] or LXRβ (pCMX-hLXRβ)); expressed in transfected cells; host or cells: CV-1 African Green Monkey Kidney Cells
T1 sequence (P55055 1-460): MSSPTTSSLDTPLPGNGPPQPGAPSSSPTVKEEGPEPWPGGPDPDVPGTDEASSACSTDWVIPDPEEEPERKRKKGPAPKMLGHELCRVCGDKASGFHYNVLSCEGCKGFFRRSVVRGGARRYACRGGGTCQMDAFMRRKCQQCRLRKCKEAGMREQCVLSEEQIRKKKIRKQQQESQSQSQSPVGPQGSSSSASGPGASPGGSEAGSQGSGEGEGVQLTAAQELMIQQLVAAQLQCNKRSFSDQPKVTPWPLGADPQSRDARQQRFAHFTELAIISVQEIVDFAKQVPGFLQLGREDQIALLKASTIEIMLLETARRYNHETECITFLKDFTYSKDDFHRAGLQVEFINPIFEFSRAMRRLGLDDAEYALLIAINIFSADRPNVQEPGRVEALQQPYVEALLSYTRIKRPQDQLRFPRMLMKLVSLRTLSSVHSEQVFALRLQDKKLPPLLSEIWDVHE
T1 sequence (P19793 1-462 partner): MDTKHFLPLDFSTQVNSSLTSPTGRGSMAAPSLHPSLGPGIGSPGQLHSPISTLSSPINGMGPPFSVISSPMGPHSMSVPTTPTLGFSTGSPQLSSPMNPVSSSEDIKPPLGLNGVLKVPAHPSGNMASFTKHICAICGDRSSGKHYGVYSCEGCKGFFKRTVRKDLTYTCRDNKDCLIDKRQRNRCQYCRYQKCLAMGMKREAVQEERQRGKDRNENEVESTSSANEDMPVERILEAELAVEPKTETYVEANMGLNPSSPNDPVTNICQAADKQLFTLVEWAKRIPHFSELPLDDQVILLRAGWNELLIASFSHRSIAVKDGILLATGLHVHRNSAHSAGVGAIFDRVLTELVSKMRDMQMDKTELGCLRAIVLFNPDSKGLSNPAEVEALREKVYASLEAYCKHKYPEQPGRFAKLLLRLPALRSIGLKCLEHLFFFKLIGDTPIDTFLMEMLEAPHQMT
Assay: Co-transfection assay (LXRE luciferase reporter), LXRβ
Assay type: cell-based
Design: % Efficacy: concentration or dose not given beside the values
Details: for EC50: CV-1 cells transfected with pCMX-hLXRβ and LXREx1-Tk-Luciferase, 20 hours incubation; for Emax / % Efficacy: LXRβ co-transfection, relative to high control 1-(2,4-difluorobenzyl)-2-oxo-6-(4-phenoxyphenyl)-4-(trifluoromethyl)-1,2-dihydropyridine-3-carbonitrile; for Emax: read-out: % Efficacy
Summary of the method: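 CV-1 cells transiently co-transfected with full-length human LXRβ expression plasmid, LXREx1-Tk-luciferase reporter and β-galactosidase control, then exposed to compound for 20 h at 37 °C. Luciferase luminescence read; EC50 from 11-point, ½-log dose–response fit, efficacy relative to high-control agonist maximum.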

Q: How did the EC50 turn out when `Cc1nc(-c2cc(-c3cc(F)c(CO)c(S(C)(=O)=O)c3)ccc2-n2cc(C(F)(F)F)nc2C)c(-c2cc(F)cc(Cl)c2)o1` [Example 450, (3′-(5-(3-chloro-5-fluorophenyl)-2-methyloxazol-4-yl)-3-fluoro-4′-(2-methyl-4-(trifluoromethyl)-1H-imidazol-1-yl)-5-(methylsulfonyl)biphenyl-4-yl)methanol] was run?
A: 45 nM

Q: What about the Emax of the same compound?
A: 49%

Q: Which EC50 does the source give for `Cc1nc(-c2cc(-c3cccc(S(C)(=O)=O)c3)ccc2-n2cc(C(F)(F)F)nc2C)c(-c2ccc3c(c2)OCCO3)o1` [Example 443, 5-(2,3-dihydrobenzo[b][1,4]dioxin-6-yl)-2-methyl-4-(4-(2-methyl-4-(trifluoromethyl)-1H-imidazol-1-yl)-3′-(methylsulfonyl)biphenyl-3-yl)oxazole] here?
A: 234 nM

Q: What about the Emax of the same compound?
A: 75%

Q: `Cc1nc(-c2cc(-c3cccc(S(C)(=O)=O)c3)ccc2-n2cc(C(C)O)nc2C)c(-c2ccc3c(c2)OC(F)(F)O3)o1` (single isomer, unassigned) [Example 514, 1-(1-(3-(5-(2,2-difluorobenzo[d][1,3]dioxol-5-yl)-2-methyloxazol-4-yl)-3′-(methylsulfonyl)-[1,1′-biphenyl]-4-yl)-2-methyl-1H-imidazol-4-yl)ethanol] was tested. Which EC50 did it give?
A: 3000 nM

Q: And the “% Efficacy” value?
A: 77%

Q: `Cc1nc(-c2cc(-c3cc(F)c(CO)c(S(C)(=O)=O)c3)ccc2-n2cc(C(F)(F)F)nc2C)c(-c2ccc(OC(F)F)c(F)c2)o1` [Example 377] was tested. Which EC50 did it give?
A: 48 nM

Q: And the Emax?
A: 77%

Q: What does the source list for `Cc1nc(C(F)F)cn1-c1ccc(-c2cccc(S(C)(=O)=O)c2)cc1-n1nncc1-c1ccccc1` [Example 171, 1-{4-[4-(difluoromethyl)-2-methyl-1H-imidazol-1-yl]-3′-(methylsulfonyl)biphenyl-3-yl}-5-phenyl-1H-1,2,3-triazole]?
A: EC50: 3090 nM; Emax: 60%

Q: `Cc1ccc(-c2cnnn2-c2cc(-c3cccc(S(C)(=O)=O)c3)ccc2-n2cc(C(F)(F)F)nc2C)cc1` [Example 50, 5-(4-methylphenyl)-1-{3′-(methylsulfonyl)-4-[2-methyl-4-(trifluoromethyl)-1H-imidazol-1-yl]biphenyl-3-yl}-1H-1,2,3-triazole] was tested. Which EC50 did it give?
A: 171 nM

Q: And the Emax?
A: 88%

Q: Which EC50 does the source give for `Cc1nc(C(F)(F)F)cn1-c1ccc(-c2cccc(S(C)(=O)=O)c2)cc1-n1nncc1-c1ccc(Cl)c(F)c1` [Example 69, 5-(4-chloro-3-fluorophenyl)-1-{3′-(methylsulfonyl)-4-[2-methyl-4-(trifluoromethyl)-1H-imidazol-1-yl]biphenyl-3-yl}-1H-1,2,3-triazole] here?
A: 341 nM

Q: And the Emax?
A: 113%

Q: For `Cc1nc(C(F)(F)F)cn1-c1ccc(-c2ccc(CO)c(S(C)(=O)=O)c2)cc1-c1ccnn1-c1ccc(Cl)nc1` [Example 298, (3′-(1-(6-chloropyridin-3-yl)-1H-pyrazol-5-yl)-4′-(2-methyl-4-(trifluoromethyl)-1H-imidazol-1-yl)-3-(methylsulfonyl)biphenyl-4-yl)methanol], which EC50 is on record?
A: 317 nM

Q: What about the Emax of the same compound?
A: 71%

Q: Which EC50 does the source give for `COCc1c(F)cc(-c2cc(F)c(-n3cc(C(F)(F)F)nc3C)c(-n3nncc3-c3ccc(OC(F)(F)F)cc3)c2)cc1S(C)(=O)=O` [Example 206, 1-{3′,5-difluoro-4′-[(methyloxy)methyl]-5′-(methylsulfonyl)-4-[2-methyl-4-(trifluoromethyl)-1H-imidazol-1-yl]biphenyl-3-yl}-5-{4-[(trifluoromethyl)oxy]phenyl}-1H-1,2,3-triazole] here?
A: 88 nM

Q: What about the Emax of the same compound?
A: 95%

Q: What does the source list for `Cc1nc(C(F)(F)F)cn1-c1ccc(-c2cccc(S(C)(=O)=O)c2)cc1-c1ncoc1-c1ccc(Cl)cc1` [Example 354, 5-(4-chlorophenyl)-4-{3′-(methylsulfonyl)-4-[2-methyl-4-(trifluoromethyl)-1H-imidazol-1-yl]biphenyl-3-yl}-1,3-oxazole]?
A: EC50: 425 nM; Emax: 77%

Q: Which results are given for `Cc1nc(C(C)(F)F)cn1-c1ccc(-c2ccc(CO)c(S(C)(=O)=O)c2)cc1-n1nncc1-c1ccc(OC(F)(F)F)cc1` [Example 178, {4′-[4-(1,1-difluoroethyl)-2-methyl-1H-imidazol-1-yl]-3-(methylsulfonyl)-3′-(5-{4-[(trifluoromethyl)oxy]phenyl}-1H-1,2,3-triazol-1-yl)biphenyl-4-yl}methanol]?
A: EC50: 638 nM; Emax: 89%

Q: How did the EC50 turn out when `Cc1cc(-c2cc(-c3cccc(S(C)(=O)=O)c3)ccc2-n2cc(C(F)(F)F)nc2C)n(-c2ccc(OC(F)(F)F)cc2)n1` [Example 291, 3-methyl-5-{3′-(methylsulfonyl)-4-[2-methyl-4-(trifluoromethyl)-1H-imidazol-1-yl]biphenyl-3-yl}-1-{4-[(trifluoromethyl)oxy]phenyl}-1H-pyrazole] was run?
A: 47 nM

Q: What about the Emax of the same compound?
A: 69%

Q: What does the source list for `Cc1nc(-c2cc(-c3cc(F)c(CO)c(S(C)(=O)=O)c3)ccc2-n2cc(Cl)nc2C)c(-c2ccc(OC(F)F)c(F)c2)o1` [Example 467, (4′-(4-chloro-2-methyl-1H-imidazol-1-yl)-3′-(5-(4-(difluoromethoxy)-3-fluorophenyl)-2-methyloxazol-4-yl)-3-fluoro-5-(methylsulfonyl)biphenyl-4-yl)methanol]?
A: EC50: 66 nM; Emax: 65%

Q: With `Cc1nc(C(N)=O)cn1-c1ccc(-c2cccc(S(C)(=O)=O)c2)cc1-c1nc(C2CC2)oc1-c1ccc2c(c1)OC(F)(F)O2` [Example 489, 1-(3-(2-cyclopropyl-5-(2,2-difluorobenzo[d][1,3]dioxol-5-yl)oxazol-4-yl)-3′-(methylsulfonyl)biphenyl-4-yl)-2-methyl-1H-imidazole-4-carboxamide] as the compound, how does the EC50 read?
A: 1080 nM

Q: And the Emax?
A: 35%

Q: `Cc1nc(-c2cc(-c3cc(F)c(CO)c(S(C)(=O)=O)c3)ccc2-n2cc(C(F)(F)F)nc2C)c(-c2ccc(OC(F)F)c(OC(F)F)c2)o1` [Example 393, (3′-(5-(3,4-bis(difluoromethoxy)phenyl)-2-methyloxazol-4-yl)-3-fluoro-4′-(2-methyl-4-(trifluoromethyl)-1H-imidazol-1-yl)-5-(methylsulfonyl)biphenyl-4-yl)methanol] was tested. Which EC50 did it give?
A: 64 nM

Q: What about the Emax of the same compound?
A: 56%

Q: For `Cc1nc(C(F)(F)F)cn1-c1ccc(-c2cc(F)c(CO)c(S(C)(=O)=O)c2)cc1-n1nncc1C(=O)c1ccc(C(F)(F)F)cc1` [Example 141, (1-{3′-fluoro-4′-(hydroxymethyl)-5′-(methylsulfonyl)-4-[2-methyl-4-(trifluoromethyl)-1H-imidazol-1-yl]biphenyl-3-yl}-1H-1,2,3-triazol-5-yl)[4-(trifluoromethyl)phenyl]meth-anone], which EC50 is on record?
A: 619 nM

Q: What about the Emax of the same compound?
A: 106%

Q: With `Cc1nc(C(F)(F)F)cn1-c1ccc(-c2cc(F)c(CO)c(S(C)(=O)=O)c2)cc1-c1ocnc1-c1ccc(OC(F)(F)F)cc1` [Example 359, [3-fluoro-5-(methylsulfonyl)-4′-[2-methyl-4-(trifluoromethyl)-1H-imidazol-1-yl]-3′-(4-{4-[(trifluoromethyl)oxy]phenyl}-1,3-oxazol-5-yl)biphenyl-4-yl]methanol] as the compound, how does the EC50 read?
A: 138 nM

Q: And the Emax?
A: 91%

Q: Which results are given for `Cc1nc(C(F)(F)F)cn1-c1ccc(-c2cccc(S(C)(=O)=O)c2)cc1-n1nncc1CCc1ccc(Cl)cc1` [Example 129, 5-[2-(4-chlorophenyl)ethyl]-1-{3′-(methylsulfonyl)-4-[2-methyl-4-(trifluoromethyl)-1H-imidazol-1-yl]biphenyl-3-yl}-1H-1,2,3-triazole]?
A: EC50: 1500 nM; Emax: 65%

Q: Which results are given for `Cc1nc(-c2ccccc2OC(F)(F)F)c(-c2cc(-c3cc(F)c(CO)c(S(C)(=O)=O)c3)ccc2-n2cc(C(F)(F)F)nc2C)o1` [Example 632, (3-fluoro-3′-(2-methyl-4-(2-(trifluoromethoxy)phenyl)oxazol-5-yl)-4′-(2-methyl-4-(trifluoromethyl)-1H-imidazol-1-yl)-5-(methylsulfonyl)-[1,1′-biphenyl]-4-yl)methanol]?
A: EC50: 34 nM; Emax: 41%

Q: How did the EC50 turn out when `Cc1nc(-c2cc(-c3cc(F)c(CO)c(S(C)(=O)=O)c3)ccc2-n2cc(C(C)O)nc2C)c(-c2ccc3c(c2)OC(F)(F)O3)o1` (single isomer, unassigned) [Example 516, 1-(1-(3-(5-(2,2-difluorobenzo[d][1,3]dioxol-5-yl)-2-methyloxazol-4-yl)-3′-fluoro-4′-(hydroxymethyl)-5′-(methylsulfonyl)-[1,1′-biphenyl]-4-yl)-2-methyl-1H-imidazol-4-yl)ethanol] was run?
A: 270 nM

Q: What about the “% Efficacy” value of the same compound?
A: 41%

— patent US9834542B2, “LXR modulators” (BRISTOL-MYERS SQUIBB COMPANY, priority 2013, dated 2017)
